# Source: patent US9145449B2, “STIP1 polypeptides and uses thereof” (Chang Gung Memorial Hospital, Linkou Branch, priority 2013, dated 2015)
# Where a SMILES comes first, the peptide text is derived from it. Where no end group is shown, it is not given here.
# Tests used:
# [1] = system: ovarian cancer cells; assay: BrdU proliferation assay (FIG. 7A, 7C, 7E); assay type: cell-based, human; conditions: for rhSTIP1-increased BrdU incorporation: with inhibitor, antibody or siRNA
# Method: (§1) The BrdU assay and Ki67 staining procedures have been reported previously (Tsai et al 2012, Wang et al 2010). For BrdU assays, cancer cells were seeded at a density of 10^4 cells/well in a 96-well plate overnight, and cultured in serum-free medium for 24 h. Cancer cells were treated with 0.4 μM of rhSTIP1 in the presence of BrdU for 24 h. DNA synthesis activity was measured using BrdU ELISA kit (Roche Applied Science). For immunocytochemistry studies of Ki-67, MDAH2774 cells were cultured on Lab-Tek II chamber slides (Nalge Nunc International, Denmark) overnight. After serum starvation or RNAi transfection for 72 h, cancer cells were treated with 0.4 μM of STIP1 with or without an STIP1 antibody for another 24 h. The slides were fixed with 99.9% of ethanol, rehydrated with PBS, treated with 3% of hydrogen peroxide for 20 min, permeabilized with 0.1% Triton X-100 (Sigma) for 15 min, and stained with anti-Ki67 antibody (Thermo Fisher Scientific, Rockford, Ill.).
# (§2) BrdU is an analogue of thymidine which can replace thymidine during DNA replication, and Ki67 is a nuclear protein that is associated with cell proliferation. BrdU incorporation assay and immunocytochemistry for endogenous Ki67 were used as an index for cell proliferation. Treatment with rhSTIP1 increased the BrdU incorporation rate and Ki67 staining of ovarian cancer cells (FIG. 7A to FIG. 7F). These activities were reduced by treatment with an ALK2/ALK3 inhibitor (LDN193189) and an ERK inhibitor (PD98059) (FIGS. 7A and 7B), an STIP1 antibody (FIGS. 7C and 7D), and ALK2 siRNA and STIP1 siRNA (FIGS. 7E and 7F).
# [2] = system: MDAH2774 cells; assay: Ki67 immunocytochemistry (FIG. 7B, 7D, 7F); assay type: cell-based, human; conditions: for rhSTIP1-increased Ki67 staining: with inhibitor, antibody or siRNA
# Method: as §1, §2
# [3] = system: ovarian cancer cells (MDAH2774); assay: MTT cell viability of transfected MDAH2774 cells; assay type: cell-based, human; conditions: for Normalized O.D / Original O.D / cancer cell viability (in words, FIG. 10B and Table 2): MTT, MDAH2774; for Normalized O.D / Original O.D: peptide 200 uM; for cancer cell viability (in words, FIG. 10B and Table 2): transfected peptides
# From the text: Human ovarian cancer cell lines TOV112D, TOV21G, SKOV3, MDAH2774, ES2, MDAH2774, BG1; human endometrial cancer cell line RL95-2, human pancreatic cancer cell line BxPC3, breast cancer cell line (MCF7) and colon cancer cell line (HT29) were obtained from ATCC (Rockville, Md., USA). Lung cancer cell line CL1-0 and nasopharyngeal carcinoma cell line NPC-BM1 were obtained from Dr. C C Wu (Department of Medical Biotechnology and Laboratory Science, Chang-Gung University, Taoyuan, Taiwan), Wu et al. Mol. Cell Proteomics 9(6):11100 (20101). Mouse ovarian cancer cell line MOSEC was obtained from Dr. C L Chang (Department of Obstetrics and Gynecology, Mackay Memorial Hospital, Taipei, Taiwan), Chang et al. Cancer Research 67:10047 (2007). TOV112D, TOV21G, SKOV3, MDAH2774, ES2 and RL95-2 were cultured in Dulbecco's modified Eagle's medium/F-12 supplemented with 10% fetal bovine serum and antibiotics at 37° C. in 5% CO2 humidified atmosphere. BxPC3, CL1-0, NPC-BM1 and MOSEC cells were cultured in RPMI 1640 media supplemented with 10% fetal bovine serum.
# Cancer cells were transfected with an STIP1 antibody in PLUSin reagent (Polyplus-transfection Inc., NY, USA) according to manufacturer's protocol. In summary, 2×10^3˜6×10^3 cancer cells were seeded in a 96-well plate overnight, followed by PBS rinse and the addition of 180 μl of OPTI-MEM. 0.6 μg of mouse STIP1 antibody were diluted in 20 mM HEPES, mixed with 1.2 μl of PLUSin by vortexing, followed by incubation at room temperature for 15 min. The antibody/PLUSin mixture was added to the cancer cells by gentle swirling the plate. The STIP1 antibody and the control IgG used in the working examples described herein are commercially available from Abnova Biotechnology Inc., (Taipei City, Taiwan). The STIP1 antibody in the working examples described herein can be used to detect recombinant full length STIP1 (SEQ ID NO:3).
# 1˜2×10^4 Cancer cells were plated per well in 96-well plates overnight, then transfected with a mouse STIP1 antibody (commercially available from Abnova Biotechnology Inc.) for 48 h before they were assessed. The inhibitory effect of the STIP1 antibody on the cancer cells was measured by the MTT [3-(4,5-Dimethylthiazol-2-yl)-2,5-Diphenyltetrazolium Bromide]method (Sigma St. Louis, Mo.). The optical density was measured at 570 nm using an automated scanning multiwell spectrophotometer (Wallac Victor2 spectrophotometer; PerkinElmer, Boston, Mass., USA).
# Given the neutralizing effect of STIP1 polypeptide 520-543 (SEQ ID NO:1) on STIP1 antibody, co-transfecting STIP1 antibody and STIP1 polypeptide 520-543 in cancer cells may reduce the suppression effect of STIP1 antibody. FIG. 10A and Table 1 show cell viability of ovarian cancer cells (MDAH2774) transfected with STIP1 antibody only (positive control) and STIP1 antibody with various concentrations of STIP1 polypeptide 520-543. Cell viability was evaluated using MTT assays. […] For example, the cell viability for STIP1 antibody was 78.81% (Table 1), the cell viability for 25 uM of STIP1 polypeptide 520-543 was 102% (Table 2), and the cell viability for STIP1 antibody and […] of STIP1 polypeptide 520-543 was 56.38% (Table 1). Similarly, the cell viability for 200 uM of STIP1 polypeptide 520-543 was 28.64% (Table 2), and the cell viability for STIP1 antibody and […] of STIP1 polypeptide 520-543 was 27.67% (Table 1).
# [4] = system: MDAH2774, ARK2, NPC-BM1, SAS, Colon 205, CL 1-0, BxPC3, HepG2 and MCF7 cells; assay: MTT assay with cell permeable peptide, cancer cell line panel (FIG. 13B); assay type: cell-based; conditions: all of the tested cancer cells
# Method: (§3) Cell permeable STIP1 polypeptide 520-543 was added to the following cancer cell lines: MDAH2774 (ovarian cancer); ARK2 (endometrial cancer); NPC-BM1 (nasopharyngeal cancer); SAS (oral cancer); Colon 205 (colon cancer); CL 1-0 (lung cancer); BxPC3 (pancreatic cancer); HepG2 (liver cancer) and MCF7 (breast cancer) cells. Cancer cell viability was assessed using the MTT assay and cell death was assessed using LDH assay.
# [5] = system: MDAH2774, ARK2, NPC-BM1, SAS, Colon 205, CL 1-0, BxPC3, HepG2 and MCF7 cells; assay: LDH assay with cell permeable peptide, cancer cell line panel (FIG. 13A); assay type: cell-based; conditions: all of the tested cancer cells
# Method: as §3
# [6] = system: SMAD1/5 phosphorylation; assay: SMAD1/5 phosphorylation western blot / antibody neutralization assay (FIG. 6A, 6B); assay type: cell-based, human; conditions: ES2, SKOV3, TOV21G, TOV112D, BR, BG1, RL95-2, CL1-0, NPC-BM1 cell lines
# Method: Cell lysates were prepared with a RIPA buffer (150 mM NaCl, 20 mM Tris-Cl pH7.5, 1% Triton X-100, 1% NP40, 0.1% SDS, 0.5% deoxycholate) containing freshly added proteinase and phosphatase inhibitors (Bionovas, Toronto). Protein concentration was measured using the Bradford method. Fifty μg of each sample was electrophoresed in 10% SDS-polyacrylamide gels, and transferred to nitrocellulose membranes. STIP1 antibody was commercially available from Abnova Biotechnology and Santa Cruz Biotechnology, Santa Cruz, Calif., actin was commercially available from Sigma, the corresponding horseradish peroxidase-conjugated antibody was commercially available from Santa Cruz Biotechnology, enhanced chemiluminescence reagent was commercially available from Millipore Inc. (Millipore, Billerica, Mass.). The signal intensity of autoradiogram was quantified using the UN-SCAN-IT software (Silk Scientific, Orem, Utah), and relative intensity of each sample was normalized by the corresponding actin intensity. For antibody neutralization assay, cancer cells were cultured in serum-free medium for 24 h, and treated with rhSTIP1 for another 24 h in the presence or absence of the STIP1 monoclonal antibody, which were pre-incubated at 37° C. for 1 h. Endogenous phospho-SMAD1/5 was detected with western blot analysis. […]
Molecule,rhSTIP1-increased BrdU incorporation [1],rhSTIP1-increased Ki67 staining [2],Normalized O.D [3],Original O.D [3],"cancer cell viability (in words, FIG. 10B and Table 2) [3]",also measured
c1ccc2c(-c3cnn4cc(-c5ccc(N6CCNCC6)cc5)cnc34)ccnc2c1 [LDN193189],reduced,reduced,–,–,–,–
COc1cccc(-c2cc(=O)c3ccccc3o2)c1N [PD98059],reduced,reduced,–,–,–,"cell proliferation (BrdU incorporation, FIG. 7A) ([1]; inhibition of ERK activity): strongly inhibited cell proliferation"
CSCC[C@H](NC(=O)[C@H](CCSC)NC(=O)[C@H](CS)NC(=O)[C@H](CCCNC(=N)N)NC(=O)[C@H](CCC(N)=O)NC(=O)[C@H](Cc1ccc(O)cc1)NC(=O)CNC(=O)[C@H](CC(=O)O)NC(=O)[C@H](C)NC(=O)[C@H](C)NC(=O)[C@H](CCC(=O)O)NC(=O)[C@H](CCCCN)NC(=O)[C@H](CS)NC(=O)[C@H](CO)NC(=O)[C@H](CO)NC(=O)[C@@H](N)CC(=O)O)C(=O)N[C@@H](C)C(=O)N[C@@H](CCC(N)=O)C(=O)N[C@@H](Cc1ccc(O)cc1)C(=O)N[C@@H](CC(N)=O)C(=O)N[C@@H](CCCNC(=N)N)C(=O)N[C@@H](Cc1c[nH]cn1)C(=O)N[C@@H](CC(=O)O)C(=O)N[C@@H](CO)C(=O)N1CCC[C@H]1C(=O)O [Peptide 458] (H-DSSCKEAADGYQRCMMAQYNRHDSP-OH; N-terminus and C-terminus assumed),–,–,0.83,0.13,did not significantly suppress cancer cell viability,–
VQQIMSDPAMRLILEQMQKDPQALS [Peptide 495],–,–,0.97,0.14,did not significantly suppress cancer cell viability,"Cell viability (%) ([3]; human, 48 h, 200 uM): 96.94%"
"cell permeable STIP1 polypeptide 520-543: STIP1 polypeptide 520-543 having eight D-arginine residues; detected with anti-myc antibody (EHLKNPVIAQKIQKLMDVGLIAIR; also: octa-D-arginine attached, end not given here, myc tag; UniProt P31948 520-543, looked up, fragment)",–,–,–,–,–,cell proliferation (MTT activity) [4]: inhibits cell proliferation; cell death (LDH activity) [5]: induce cell death
rhSTIP1: recombinant human STIP1 protein (a.a. sequence number 1 to 543),–,–,–,–,–,"SMAD1/5 phosphorylation [6]: stimulates SMAD1/5 phosphorylation; BrdU incorporation rate ([1]; treatment with rhSTIP1 (0.4 μM, 24 h)): increased; Ki67 staining ([2]; treatment with rhSTIP1): increased"
